Results taken from ChEMBL document CHEMBL1201862, “PubChem BioAssay data set” (2004).
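Assay format: 96-well plates, 48-hour exposure. GI50 marks 50% less growth.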 The source made the active and inactive calls. Cut-off read from the data, not from the text of the source: active = GI50 up to about 1.1 µM and inactive = higher.

Legend:
Assay in all cases: NCI anticancer screen, dose series, 48 h
HL-60 = tested on: HL-60
OVCAR-8 = tested on: OVCAR-8
CAKI-1 = tested on: CAKI-1
HCT-116 = tested on: HCT-116
HOP-62 = tested on: HOP-62
DLD-1 = tested on: DLD-1
CCRF-CEM = tested on: CCRF-CEM
M14 = tested on: M14
K562 = tested on: K562
NCI-H460 = tested on: NCI-H460
LOX IMVI = tested on: LOX IMVI
NCI-H522 = tested on: NCI-H522
SK-OV-3 = tested on: SK-OV-3
786-0 = tested on: 786-0
SK-MEL-28 = tested on: SK-MEL-28
UO-31 = tested on: UO-31
OVCAR-4 = tested on: OVCAR-4
A498 = tested on: A498
MDA-MB-231 = tested on: MDA-MB-231
Hs-578T = tested on: Hs-578T

| SMILES | GI50 (HL-60) | GI50 (OVCAR-8) | GI50 (CAKI-1) | GI50 (HCT-116) | GI50 (HOP-62) | GI50 (DLD-1) | GI50 (CCRF-CEM) | GI50 (M14) | GI50 (K562) | GI50 (NCI-H460) | GI50 (LOX IMVI) | GI50 (NCI-H522) | GI50 (SK-OV-3) | GI50 (786-0) | GI50 (SK-MEL-28) | GI50 (UO-31) | GI50 (OVCAR-4) | GI50 (A498) | GI50 (MDA-MB-231) | GI50 (Hs-578T) |
| --- | --- | --- | --- | --- | --- | --- | --- | --- | --- | --- | --- | --- | --- | --- | --- | --- | --- | --- | --- | --- |
| O=C1C=C(N2CCCC2)C=C(N2CCCC2)C1 | > 100 µM (inactive) | > 100 µM (inactive) | > 100 µM (inactive) | > 100 µM (inactive) | > 100 µM (inactive) | > 100 µM (inactive) | > 100 µM (inactive) | > 100 µM (inactive) | > 100 µM (inactive) | > 100 µM (inactive) | > 100 µM (inactive) | > 100 µM (inactive) | > 100 µM (inactive) | > 100 µM (inactive) | > 100 µM (inactive) | > 100 µM (inactive) |  |  |  |  |
| Nc1ccc2ncc(Nc3ccc(F)cc3)nc2c1 | > 100 µM (inactive) | > 100 µM (inactive) | > 100 µM (inactive) | > 100 µM (inactive) | > 100 µM (inactive) | > 100 µM (inactive) | 56.8 µM (inactive) | > 100 µM (inactive) | 52.5 µM (inactive) | > 100 µM (inactive) | > 100 µM (inactive) | > 100 µM (inactive) |  | > 100 µM (inactive) | > 100 µM (inactive) | 99.3 µM (inactive) | > 100 µM (inactive) |  |  |  |
| CC(=O)OCC1OC(n2c(=S)n(-c3ccccc3)c(=O)c3cc(Br)ccc32)C(OC(C)=O)C1OC(C)=O (stereo not given) |  | > 100 µM (inactive) | 11.6 µM (inactive) | > 100 µM (inactive) | > 100 µM (inactive) | > 100 µM (inactive) |  | > 100 µM (inactive) |  | > 100 µM (inactive) | > 100 µM (inactive) | > 100 µM (inactive) | > 100 µM (inactive) | > 100 µM (inactive) | > 100 µM (inactive) | > 100 µM (inactive) | > 100 µM (inactive) | > 100 µM (inactive) |  |  |
| Cc1ccccc1C(=O)Oc1ccc(OCc2ccccc2)cc1 | 5.82 µM (inactive) | > 100 µM (inactive) |  | 53.5 µM (inactive) | > 100 µM (inactive) | > 100 µM (inactive) | 22.2 µM (inactive) | > 100 µM (inactive) | 47.6 µM (inactive) | 39.1 µM (inactive) | 99.1 µM (inactive) |  | > 100 µM (inactive) | 51.2 µM (inactive) | > 100 µM (inactive) | 37.2 µM (inactive) | > 100 µM (inactive) | 34.5 µM (inactive) |  |  |
| Oc1ccccc1/C=N/Cc1ccco1 | > 100 µM (inactive) | > 100 µM (inactive) |  | > 100 µM (inactive) | > 100 µM (inactive) | > 100 µM (inactive) | > 100 µM (inactive) | > 100 µM (inactive) | > 100 µM (inactive) | > 100 µM (inactive) | > 100 µM (inactive) |  | > 100 µM (inactive) | > 100 µM (inactive) | > 100 µM (inactive) | > 100 µM (inactive) | > 100 µM (inactive) | > 100 µM (inactive) |  |  |
| Nc1nc(N)c(CCCCc2ccccc2)c(/C=C/c2ccc([N+](=O)[O-])cc2)n1 | 1.35 µM (inactive) | 2.59 µM (inactive) | 3.92 µM (inactive) | 1.16 µM (inactive) | 2.77 µM (inactive) | 2.39 µM (inactive) | 1.69 µM (inactive) | 1.89 µM (inactive) | 0.348 µM (active) | 0.873 µM (active) | 1.85 µM (inactive) | 2.24 µM (inactive) | 6.67 µM (inactive) | 0.785 µM (active) | 3.33 µM (inactive) | 1.91 µM (inactive) | 3.94 µM (inactive) |  |  |  |
| Cc1cccc(NC2=NC(=O)C(CC(=O)Nc3cccc(C)c3C)S2)c1 (stereo not given) | 35.9 µM (inactive) | > 100 µM (inactive) |  | > 100 µM (inactive) | > 100 µM (inactive) | > 100 µM (inactive) | 25.8 µM (inactive) | > 100 µM (inactive) |  | > 100 µM (inactive) | > 100 µM (inactive) |  |  | > 100 µM (inactive) | > 100 µM (inactive) | > 100 µM (inactive) | > 100 µM (inactive) |  |  |  |
| COc1cc(-c2[o+]c3cc(O)cc(O)c3cc2O)cc(O)c1O | > 100 µM (inactive) | > 100 µM (inactive) | > 100 µM (inactive) | > 100 µM (inactive) | > 100 µM (inactive) |  | 25.9 µM (inactive) | > 100 µM (inactive) | > 100 µM (inactive) | > 100 µM (inactive) | 55.8 µM (inactive) | 66.5 µM (inactive) | > 100 µM (inactive) | > 100 µM (inactive) | > 100 µM (inactive) | > 100 µM (inactive) | 60 µM (inactive) | > 100 µM (inactive) | > 100 µM (inactive) | > 100 µM (inactive) |
| C=CCC1C(=O)C(C(=O)OC)N2CCc3c([nH]c4ccccc34)C12 (stereo not given) | > 100 µM (inactive) | > 100 µM (inactive) | > 100 µM (inactive) | > 100 µM (inactive) | > 100 µM (inactive) | > 100 µM (inactive) | 95.5 µM (inactive) | > 100 µM (inactive) | > 100 µM (inactive) |  |  | 80 µM (inactive) | > 100 µM (inactive) | > 100 µM (inactive) | > 100 µM (inactive) | > 100 µM (inactive) | > 100 µM (inactive) | > 100 µM (inactive) |  |  |
| CO/N=C(\C)c1ccc(Nc2c3ccccc3nc3occc23)cc1 | 0.254 µM (active) | 0.841 µM (active) | 0.318 µM (active) | 0.374 µM (active) | 1.27 µM (inactive) |  | 0.47 µM (active) | 0.397 µM (active) | 0.195 µM (active) | 0.426 µM (active) | 0.59 µM (active) | < 0.0317 µM (active) | 1.16 µM (inactive) | 0.74 µM (active) | 1.43 µM (inactive) | 2.42 µM (inactive) | 0.902 µM (active) | 0.773 µM (active) | 0.741 µM (active) | 0.482 µM (active) |
| CCCCC(=O)OC[n+]1ccc(-c2c(COC(=O)NC(C)C)c(COC(=O)NC(C)C)c3n2CCC3)cc1 | 25.5 µM (inactive) | > 100 µM (inactive) | 24.9 µM (inactive) | > 94.8 µM (inactive) | > 59.6 µM (inactive) |  | 33.7 µM (inactive) | > 77.4 µM (inactive) | > 90.8 µM (inactive) | 42.3 µM (inactive) | 47.9 µM (inactive) | 30.5 µM (inactive) | > 100 µM (inactive) | 39.4 µM (inactive) | > 100 µM (inactive) | > 100 µM (inactive) | > 100 µM (inactive) | 23.9 µM (inactive) | > 67.6 µM (inactive) | > 100 µM (inactive) |
| N#CCCN(CCC#N)c1ccc(/C=C(/NC(=O)c2cc([N+](=O)[O-])ccc2Cl)C(=O)NN)cc1 |  | 58.3 µM (inactive) | > 100 µM (inactive) | > 100 µM (inactive) | > 100 µM (inactive) | > 100 µM (inactive) | 47.5 µM (inactive) | > 100 µM (inactive) | > 100 µM (inactive) | > 100 µM (inactive) | 41.4 µM (inactive) | > 100 µM (inactive) | > 100 µM (inactive) | > 100 µM (inactive) | > 100 µM (inactive) | > 100 µM (inactive) | > 100 µM (inactive) | > 100 µM (inactive) |  |  |
| COc1ccc2cc(NC(=O)Nn3cnnc3)ccc2c1 | > 100 µM (inactive) | > 100 µM (inactive) | > 100 µM (inactive) | > 100 µM (inactive) | > 100 µM (inactive) |  | > 100 µM (inactive) | > 100 µM (inactive) | > 100 µM (inactive) | > 100 µM (inactive) | > 100 µM (inactive) | > 100 µM (inactive) | > 100 µM (inactive) | > 100 µM (inactive) | > 100 µM (inactive) | > 100 µM (inactive) | > 100 µM (inactive) | > 100 µM (inactive) | > 100 µM (inactive) | > 100 µM (inactive) |
| Cc1ccc(NC(=O)c2cccc(OP(=O)(Nc3ccc(C)cc3)Nc3ccc(C)cc3)c2)cc1 | 9.95 µM (inactive) | 16 µM (inactive) | 12.8 µM (inactive) | 4.18 µM (inactive) | 28.7 µM (inactive) |  | 13.8 µM (inactive) | 3.21 µM (inactive) | > 100 µM (inactive) | 3.88 µM (inactive) | 10.9 µM (inactive) | 2.78 µM (inactive) | 24.9 µM (inactive) | 19.9 µM (inactive) | 29.9 µM (inactive) | 4.53 µM (inactive) | 14 µM (inactive) | 18.1 µM (inactive) | 3.32 µM (inactive) | 6.3 µM (inactive) |
| NC1=NC(NCC2(CO)CCC2)=CC(OCC2(CO)CCC2)N1 (stereo not given) | 78.2 µM (inactive) | > 100 µM (inactive) | > 100 µM (inactive) | > 100 µM (inactive) | > 100 µM (inactive) |  | > 100 µM (inactive) | > 100 µM (inactive) | 44.8 µM (inactive) | > 100 µM (inactive) | > 100 µM (inactive) | > 100 µM (inactive) | > 100 µM (inactive) | > 100 µM (inactive) | > 100 µM (inactive) | > 100 µM (inactive) | > 100 µM (inactive) | > 100 µM (inactive) | > 100 µM (inactive) | > 100 µM (inactive) |
| COC(OC)(c1ccccc1)C(I)I | 2 µM (inactive) | 17.9 µM (inactive) | 11.8 µM (inactive) | 4.91 µM (inactive) | 28.1 µM (inactive) |  | 2.31 µM (inactive) | 5.37 µM (inactive) | 2.58 µM (inactive) | 16.7 µM (inactive) | 13.4 µM (inactive) | 2.5 µM (inactive) | 12.1 µM (inactive) | 8.36 µM (inactive) | 16.1 µM (inactive) | 16.3 µM (inactive) | 14.2 µM (inactive) | > 10 µM (inactive) | 18.9 µM (inactive) | 20.1 µM (inactive) |
